The source of these data is publication PMC7203973 (ACS Omega, 2020).

The conditions of data set [1]: cited from earlier work.
The conditions of data set [2]: cited from earlier work. This is another data set of the same source.
The nature of a further data set: Permeability by PAMPA. The format is in vitro ADME. (In PAMPA a lipid-coated filter parts donor from acceptor wells.)
The conditions of data set [3]: marketed drugs; cited from earlier work.
For data set [4] the following is noted: cited from earlier work. This is another data set of the same source.
For data set [5] the following is noted: cited from earlier work. The source holds these as a separate data set.

By Papp is commonly meant a coefficient for how fast a substance crosses the barrier. `C[C@]12CC[C@H]3[C@@H](CCC4=CC(=O)CC[C@@]43C)[C@@H]1CC[C@@H]2O` [testosterone]: the “partition coefficient (log P), reported value” in data set [1] is given as “around 3.28”. Further, the “permeability (log Pe), reported results” value in data set [2] is −3.5 to −4.9. In the data set “Permeability by PAMPA”, the apparent permeability (Papp) at 5 h, 25 μM is 102 ×10⁻⁶ cm/s. In the case of `CCN(CC)CCOC(=O)c1ccc(N)cc1` [procaine], the “stability in rat plasma versus human plasma” value in data set [3] is given as “vice verse”. Turning to `NS(=O)(=O)c1cc(C2(O)NC(=O)c3ccccc32)ccc1Cl` (stereo not drawn) [chlorthalidone], the “blood-to-plasma ratio (KRBC/Plasma), reported in the literature” value (“blood-to-plasma ratio (KRBC/Plasma)” for short) in data set [4] was 20.0 ± 0.3.

As to `CCN(CC)CCCC(C)Nc1ccnc2cc(Cl)ccc12` (stereo not drawn) [chloroquine], the “blood-to-plasma ratio (KRBC/Plasma)” value in data set [4] is 8.5 ± 0.1. As for `CCOC(=O)[C@H](CCc1ccccc1)N[C@@H](C)C(=O)N1CCC[C@H]1C(=O)O` [enalapril], in data set [3], the “stability in rat plasma versus human plasma” value is given as “very less stable in rat plasma but more stable in human plasma”. Take `CO[C@H]1/C=C/O[C@@]2(C)Oc3c(C)c(O)c4c(O)c(c(/C=N/N5CCN(C)CC5)c(O)c4c3C2=O)NC(=O)/C(C)=C\C=C\[C@H](C)[C@H](O)[C@@H](C)[C@@H](O)[C@@H](C)[C@H](OC(C)=O)[C@@H]1C` [rifampicin]: the “plasma protein binding, reported results” value in data set [5] is given as 82–92%.

With `CO[C@H]1C[C@@H]2CC[C@@H](C)[C@@](O)(O2)C(=O)C(=O)N2CCCC[C@H]2C(=O)O[C@H]([C@H](C)C[C@@H]2CC[C@@H](O)[C@H](OC)C2)CC(=O)[C@H](C)/C=C(\C)[C@@H](O)[C@@H](OC)C(=O)[C@H](C)C[C@H](C)/C=C/C=C/C=C/1C` [rapamycin], the “blood-to-plasma ratio (KRBC/Plasma)” value in data set [4] is 3.5 ± 0.5.
